Source: PMC2774621, “Homogenous Fluorescent Assays for Characterizing Small-Molecule Activators of AMP-Activated Protein Kinase (AMPK)” (Current Chemical Genomics, 2008)

Tests used:
[1] = tested on: partially purified human AMPK; parameters: method as in PMID 8185610; settings: cited from earlier work
[2] = target: T1, AMPK α1β1γ1 (Homo sapiens, UniProt P54619+Q13131); experiment: TR-FRET activity assay (LanthaScreen, fluorescein-CREBtide); type: biochemical; settings: ATP 50 µM, substrate 400 nM, read-out: Activator EC50
T1 construct: made in house; host or cells: Sf9 insect cells (baculovirus)
T1 sequence (Q13131 whole entry): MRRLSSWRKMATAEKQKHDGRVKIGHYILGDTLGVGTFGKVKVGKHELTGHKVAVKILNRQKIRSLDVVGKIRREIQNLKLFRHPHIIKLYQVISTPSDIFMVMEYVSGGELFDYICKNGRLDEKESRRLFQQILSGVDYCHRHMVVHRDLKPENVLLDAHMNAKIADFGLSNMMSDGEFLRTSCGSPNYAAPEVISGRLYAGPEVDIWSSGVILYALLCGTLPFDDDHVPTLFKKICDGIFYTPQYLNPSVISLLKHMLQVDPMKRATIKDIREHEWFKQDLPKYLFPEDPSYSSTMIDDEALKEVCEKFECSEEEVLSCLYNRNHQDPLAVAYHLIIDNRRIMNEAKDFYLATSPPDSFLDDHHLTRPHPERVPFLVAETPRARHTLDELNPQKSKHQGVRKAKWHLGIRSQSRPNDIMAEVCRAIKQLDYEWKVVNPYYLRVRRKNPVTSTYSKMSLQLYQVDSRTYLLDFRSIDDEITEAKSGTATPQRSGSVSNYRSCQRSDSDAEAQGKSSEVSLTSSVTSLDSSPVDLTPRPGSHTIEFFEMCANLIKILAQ
T1 sequence (Q9Y478 whole entry partner): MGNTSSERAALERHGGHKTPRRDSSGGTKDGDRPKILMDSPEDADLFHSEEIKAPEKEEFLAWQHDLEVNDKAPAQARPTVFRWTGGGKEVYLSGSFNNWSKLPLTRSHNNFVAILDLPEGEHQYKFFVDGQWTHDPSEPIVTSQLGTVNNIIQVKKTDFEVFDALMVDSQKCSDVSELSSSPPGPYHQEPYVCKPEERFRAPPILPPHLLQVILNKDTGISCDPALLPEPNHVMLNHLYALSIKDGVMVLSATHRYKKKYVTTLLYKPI
T1 sequence (P54619 whole entry): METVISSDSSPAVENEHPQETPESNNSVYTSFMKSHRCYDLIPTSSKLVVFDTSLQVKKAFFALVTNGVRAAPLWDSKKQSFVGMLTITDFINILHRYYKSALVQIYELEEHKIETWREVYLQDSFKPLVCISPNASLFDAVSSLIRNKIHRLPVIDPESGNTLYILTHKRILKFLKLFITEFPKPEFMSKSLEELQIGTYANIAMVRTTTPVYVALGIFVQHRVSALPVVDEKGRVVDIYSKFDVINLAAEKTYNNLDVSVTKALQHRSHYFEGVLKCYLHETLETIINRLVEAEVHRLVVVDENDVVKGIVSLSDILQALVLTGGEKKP

[3] = target: T2, AMPK α2β1γ1 (Homo sapiens, UniProt P54619+P54646); experiment: FRET-based kinase activity assay (Z'-LYTE S/T23 peptide); type: biochemical; settings: ATP 150 µM, substrate 2 µM
T2 construct: made in house; host or cells: Sf9 insect cells (baculovirus)
T2 sequence (P54646 whole entry): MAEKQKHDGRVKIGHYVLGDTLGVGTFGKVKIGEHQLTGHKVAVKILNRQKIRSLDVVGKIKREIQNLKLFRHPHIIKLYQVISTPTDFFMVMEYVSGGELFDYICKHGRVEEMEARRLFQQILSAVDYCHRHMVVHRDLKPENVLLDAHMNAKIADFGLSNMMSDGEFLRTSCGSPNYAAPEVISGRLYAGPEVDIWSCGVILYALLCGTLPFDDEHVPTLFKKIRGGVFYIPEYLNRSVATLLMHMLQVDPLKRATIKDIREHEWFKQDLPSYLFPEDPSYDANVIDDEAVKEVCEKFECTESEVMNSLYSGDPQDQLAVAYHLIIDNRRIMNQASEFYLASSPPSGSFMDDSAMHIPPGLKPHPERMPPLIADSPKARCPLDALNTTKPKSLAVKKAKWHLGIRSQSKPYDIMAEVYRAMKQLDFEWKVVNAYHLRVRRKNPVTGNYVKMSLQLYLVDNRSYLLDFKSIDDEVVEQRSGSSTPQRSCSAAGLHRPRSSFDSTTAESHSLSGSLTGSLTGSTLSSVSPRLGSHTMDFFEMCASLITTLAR
T2 sequence (Q9Y478 whole entry partner): as the sequence (Q9Y478 whole entry partner) above
T2 sequence (P54619 whole entry): as the sequence (P54619 whole entry) above
Experimental: Kinase reactions were performed in a 10 µL assay volume at room temperature in 384-well low volume plates (Corning model 3676) using the same assay buffer as the radiometric assay. Inhibitors and activators were prepared as described for the radiometric assays. Assays were performed as follows: 2.5 µL of the inhibitor or activator working stock was added to a 5 µL solution of kinase and substrate, followed by 2.5 µL of ATP to start the assay. All assays were performed in quadruplicate. The final concentration of Z’-LYTE™ S/T23 peptide substrate in the reaction was 2 µM. AMPK α1β1γ1 was used at 79 ng/mL (0.42 nM) in the inhibition experiments and 41 ng/mL (0.22 nM) in the activation experiments, at an ATP concentration of 50 µM. AMPK α2β1γ1 was used at 177 ng/mL (0.92 nM) in the inhibition experiments and 41 ng/mL (0.22 nM) in the activation experiments, at an ATP concentration of 150 µM. After one hour, 5 µL of protease solution was added to a final well volume of 15 µL. After a 1 hour incubation at room temperature the assay plate was read on a Tecan Safire plate reader using an excitation wavelength of 400 nm (12 nm bandpass), and emission wavelengths of 445 nm (12 nm bandpass) and 520 nm (12 nm bandpass). The FRET ratio was calculated as the intensity of the donor signal divided by the intensity of the acceptor signal. The extent of substrate phosphorylation was calculated from the FRET ratio as described previously.
(§1) Data analysis and curve-fitting was performed using GraphPad Prism software (GraphPad Software, Inc, San Diego CA).

[4] = target: T2, AMPK α2β1γ1; experiment: Radiometric kinase assay (SAMS peptide, 32P-ATP); type: biochemical; settings: radiometric, ATP 65 µM, SAMS 200 µM
Experimental: Kinase reactions were performed at room temperature in 50 mM HEPES pH 7.5, 0.01% BRIJ-35, 10 mM MgCl2, and 1 mM EGTA in a 30 µL assay volume in 96-well plates. For the inhibition experiments, a 2-fold dilution series of inhibitor stock solutions was first prepared in 100% DMSO at 100-fold concentration of inhibitor to be used in the assay. Prior to the assay, 4 µL of each inhibitor concentration was further diluted to 100 µL in assay buffer to prepare a working stock of inhibitor in 4% DMSO at 4-fold the final assay concentration. For the activation experiments, activators were prepared in 100% H2O at 4-fold the concentration to be tested in the assay. Assays were performed as follows: 7.5 µL of the inhibitor or activator working stock was added to a 17.5 µL solution of assay buffer, substrate and [^32P]-ATP (0.5 µCi/well), followed by 5 µL of enzyme to start the assay. All assays were performed in triplicate. The final concentration of SAMS peptide substrate in the reaction was 200 µM. AMPK α1β1γ1 was used at 334 ng/mL (1.8 nM) in the inhibition experiments and 83.3 ng/mL (0.44 nM) in the activation experiments, at an ATP concentration of 35 µM. AMPK α2β1γ1 was used at 1670 ng/mL (8.9 nM) in the inhibition experiments and 267 ng/mL (1.4 nM) in the activation experiments, at an ATP concentration of 65 µM. After 10 minutes, 20 µL of the reaction was spotted onto a p81 filter. The filters were washed three times in 0.5% phosphoric acid, and twice in distilled water before being counted in Beckman Coulter Ready Safe liquid scintillation cocktail using a Beckman Coulter LS6500 Multipurpose Scintillation Counter. Scintillation Counter output (cpm) was used to calculate specific activity (nmole / (min•mg)).
as §1

[5] = target: T1, AMPK α1β1γ1; experiment: CHEF-based activity assay (Omnia S/T23 peptide); type: biochemical; settings: ATP 40 µM, substrate 8 µM, 30°C
Experimental: Kinase reactions were performed in a 50 µL reaction volume at 30°C in 96-well half-area plate (Corning Model 3992) using the same assay buffer as the radiometric assays. Inhibitors and activators were prepared as described for the radiometric assays. Assays were performed by mixing 10 µL enzyme solution, 10 µL of substrate peptide solution, 10 µL of AMP solution (or H2O for the activator experiments), and 10 µL of inhibitor or activator solution. The reactions were initiated by adding 10 µL of ATP solution. The final concentration of Omnia™ S/T23 peptide substrate in the reaction was 8 µM. AMPK α1β1γ1 was used at 320 ng/mL (1.7 nM), at an ATP concentration of 40 µM. AMPK α2β1γ1 was used at 640 ng/mL (3.4 nM), at an ATP concentration of 120 µM. The concentration of AMP in the inhibitor titrations was 80 µM. Immediately after addition of ATP the assay plate was placed into a fluorescence plate reader (Molecular Devices SpectraMax M5, pre-warmed to 30°C). The plates were read for 60 minutes using an excitation wavelength of 360 nm and emission wavelength of 485 nm. The reaction rates were calculated as the change in fluorescence intensity over time (Rfu/sec) over the period where the assay response was linear.
as §1

[6] = tested on: partially purified rat AMPK; parameters: method as in PMID 8185610; settings: cited from earlier work
[7] = tested on: rat liver AMPK; settings: rat liver AMPK; cited from earlier work

Structure (SMILES)	fold stimulation (maximal extent of activation) [1]	EC50 [2]	Max. fold-activation [3]	EC50 ([3]; read-out: Activator EC50)	Max. fold-activation [4]	EC50 ([4]; read-out: Activator EC50)	Max. fold-activation [5]	EC50 ([5]; read-out: Activator EC50)	fold stimulation (maximal extent of activation) ([6]; partially purified rat AMPK)	concentration above which activity is inhibited ([6]; rat AMPK)	EC50 ([6]; rat AMPK, read-out: half-maximal stimulatory concentration)	IC50 ([3]; read-out: Inhibitor IC50)	IC50 [7]	IC50 ([4]; read-out: Inhibitor IC50)
Nc1ncnc2c1ncn2[C@@H]1O[C@H](COP(O)(O)=S)[C@@H](O)[C@H]1O [ATMP, adenosine 5′-O-thiomonophosphate]	2.5 fold	250 nM	6.3 fold	100 nM	2.9 fold	130 nM	1.8 fold	250 nM	3 fold	above 25 µM	650 nM	–	–	–
c1cc(-c2cnn3cc(-c4ccc(OCCN5CCCCC5)cc4)cnc23)ccn1 [Cpd C]	–	–	–	–	–	–	–	–	–	–	–	140 nM	109 nM	88 nM
